Measurements from PubChem BioAssay (NCI).
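Values below derive from 48-hour exposures of cells grown in 96-well plates, with endpoints linearly interpolated between the two concentrations bracketing the appropriate inhibition level. TGI is the concentration that stops growth completely.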

Tests used:
Experiment in all cases: NCI tumour cell line growth inhibition, 48 h
[1] = test system: CCRF-CEM leukemia
[2] = test system: EKVX NSCLC
[3] = test system: HCT-15 colon
[4] = test system: HOP-62 NSCLC
[5] = test system: IGROV1 ovarian
[6] = test system: MOLT-4 leukemia
[7] = test system: OVCAR-3 ovarian
[8] = test system: OVCAR-4 ovarian
[9] = test system: PC-3 prostate
[10] = test system: SR leukemia

## CCN1CCCn2c(=O)[nH]c3cc(Br)cc1c32
[1]
  TGI: > 100 µM
[2]
  TGI: > 100 µM
[3]
  TGI: > 100 µM
[4]
  TGI: > 100 µM
[5]
  TGI: > 100 µM
[6]
  TGI: > 100 µM
[7]
  TGI: > 100 µM
[8]
  TGI: > 100 µM
[9]
  TGI: > 100 µM
[10]
  TGI: > 100 µM

## CCN(CC)C1Oc2cc3c(cc2C(c2cc(OC)c(OC)c(OC)c2)C1C)OCO3 (stereo not given)
[1]
  TGI: > 22.9 µM
[2]
  TGI: > 75.5 µM
[3]
  TGI: 13.3 µM
[4]
  TGI: 12.9 µM
[5]
  TGI: > 63.2 µM
[6]
  TGI: 13.1 µM
[7]
  TGI: 5.79 µM
[8]
  TGI: > 100 µM
[9]
  TGI: > 57.4 µM
[10]
  TGI: 5.01 µM

## Cc1cn(CCOCCOC(=O)NC(CCCNC(N)=O)C(=O)O)c(=O)[nH]c1=O (stereo not given)
[1]
  TGI: > 100 µM
[2]
  TGI: > 100 µM
[3]
  TGI: > 100 µM
[4]
  TGI: > 100 µM
[5]
  TGI: > 100 µM
[6]
  TGI: > 100 µM
[7]
  TGI: > 100 µM
[8]
  TGI: > 100 µM
[9]
  TGI: > 100 µM
[10]
  TGI: > 100 µM

## COc1cc2c(cc1OC)C(=O)/C(=C/c1ccc(O)cc1)CC2
[1]
  TGI: > 10 µM
[2]
  TGI: > 10 µM
[3]
  TGI: > 10 µM
[4]
  TGI: > 10 µM
[5]
  TGI: > 10 µM
[6]
  TGI: > 10 µM
[7]
  TGI: > 10 µM
[8]
  TGI: > 10 µM
[9]
  TGI: > 10 µM
[10]
  TGI: > 10 µM

## O=[N+]([O-])c1ccc2nc(/C=C(\O)c3ccc(Cl)cc3)c(/C=C(\O)c3ccc(Cl)cc3)nc2c1
[1]
  TGI: > 100 µM
[2]
  TGI: > 100 µM
[3]
  TGI: > 100 µM
[4]
  TGI: > 100 µM
[5]
  TGI: > 100 µM
[6]
  TGI: > 100 µM
[7]
  TGI: > 100 µM
[8]
  TGI: > 100 µM
[9]
  TGI: > 100 µM
[10]
  TGI: > 100 µM

## COc1cc(S(=O)(=O)Nc2ccc(-c3csc(/N=C\c4ccccc4)n3)cc2)ccc1Cl
[1]
  TGI: > 100 µM
[2]
  TGI: > 100 µM
[3]
  TGI: > 100 µM
[4]
  TGI: > 100 µM
[5]
  TGI: > 100 µM
[6]
  TGI: 52.1 µM
[7]
  TGI: > 100 µM
[8]
  TGI: > 100 µM
[9]
  TGI: > 100 µM
[10]
  TGI: > 100 µM

## CC(=O)Nc1ccc(/C=C2/NC(=S)N(/C=C3\C(=O)Oc4ccccc4C3=O)C2=O)cc1
[1]
  TGI: > 100 µM
[2]
  TGI: > 100 µM
[3]
  TGI: > 100 µM
[4]
  TGI: > 100 µM
[5]
  TGI: > 100 µM
[6]
  TGI: > 100 µM
[7]
  TGI: > 100 µM
[8]
  TGI: > 100 µM
[9]
  TGI: > 100 µM
[10]
  TGI: > 100 µM

## C=CCOC1(CC=C)C(=O)OC2C(O)COC21O (stereo not given)
[1]
  TGI: > 100 µM
[2]
  TGI: > 100 µM
[3]
  TGI: > 100 µM
[4]
  TGI: > 100 µM
[5]
  TGI: > 100 µM
[6]
  TGI: > 100 µM
[7]
  TGI: > 100 µM
[8]
  TGI: > 100 µM
[9]
  TGI: > 100 µM
[10]
  TGI: > 100 µM

## CNC(=O)N(CCC#N)CCCN(C(=O)N(C)C)c1ccccc1
[1]
  TGI: > 100 µM
[2]
  TGI: > 100 µM
[3]
  TGI: > 100 µM
[4]
  TGI: > 100 µM
[5]
  TGI: > 100 µM
[6]
  TGI: > 100 µM
[7]
  TGI: > 100 µM
[8]
  TGI: > 100 µM
[9]
  TGI: > 100 µM
[10]
  TGI: > 100 µM

## O=c1oc2cccnc2n1CCCCN1CCN(c2ccccc2)CC1
[1]
  TGI: > 100 µM
[2]
  TGI: > 100 µM
[3]
  TGI: > 100 µM
[4]
  TGI: > 100 µM
[5]
  TGI: > 100 µM
[6]
  TGI: > 100 µM
[7]
  TGI: > 100 µM
[8]
  TGI: > 100 µM
[9]
  TGI: > 100 µM
[10]
  TGI: > 100 µM

## COC(=O)[C@](C)(Cc1ccccc1)NC(=O)[C@@H](C)N1[C@@H](c2ccccc2)COC1(C)C
[1]
  TGI: > 100 µM
[2]
  TGI: > 100 µM
[3]
  TGI: > 100 µM
[4]
  TGI: > 100 µM
[5]
  TGI: > 100 µM
[6]
  TGI: > 100 µM
[7]
  TGI: > 100 µM
[8]
  TGI: > 100 µM
[9]
  TGI: > 100 µM
[10]
  TGI: > 100 µM

## COC(=O)C1CC23C=CCN4CC(C2C)C2(c5ccccc5NC12)C43 (stereo not given)
[1]
  TGI: > 100 µM
[2]
  TGI: > 100 µM
[3]
  TGI: > 100 µM
[4]
  TGI: > 100 µM
[5]
  TGI: > 100 µM
[6]
  TGI: > 100 µM
[7]
  TGI: > 100 µM
[8]
  TGI: > 100 µM
[9]
  TGI: > 100 µM
[10]
  TGI: > 100 µM

## Nc1ccc2c(c1)NC(=O)[C@@H]1CCCN1C2=O
[1]
  TGI: > 100 µM
[2]
  TGI: > 100 µM
[3]
  TGI: > 100 µM
[4]
  TGI: > 100 µM
[5]
  TGI: > 100 µM
[6]
  TGI: > 100 µM
[7]
  TGI: > 100 µM
[8]
  TGI: > 100 µM
[9]
  TGI: > 100 µM
[10]
  TGI: > 100 µM

## O=c1[nH]c2cc([N+](=O)[O-])c(Nc3c4ccccc4nc4ccccc34)c([N+](=O)[O-])c2[nH]1
[1]
  TGI: 24.3 µM
[2]
  TGI: 7.47 µM
[3]
  TGI: 14.4 µM
[4]
  TGI: 11.6 µM
[5]
  TGI: 3.04 µM
[6]
  TGI: 5.02 µM
[7]
  TGI: 9.33 µM
[8]
  TGI: 13.9 µM
[9]
  TGI: 15.2 µM
[10]
  TGI: 4.36 µM

## CC1CN=C(c2ccc(-c3nc(-c4ccc(C5=NCC(C)N5)cc4)nc(N(C)C)n3)cc2)N1 (stereo not given)
[1]
  TGI: 3.59 µM
[2]
  TGI: 8.67 µM
[3]
  TGI: 33.9 µM
[4]
  TGI: 5.35 µM
[5]
  TGI: 18 µM
[6]
  TGI: 3.79 µM
[7]
  TGI: 4.74 µM
[8]
  TGI: 3.67 µM
[9]
  TGI: 4.42 µM
[10]
  TGI: 2.49 µM

## COc1cc2oc(=O)cc(C)c2c(OC)c1OC(C)=O
[1]
  TGI: > 100 µM
[2]
  TGI: > 100 µM
[3]
  TGI: > 100 µM
[4]
  TGI: > 100 µM
[5]
  TGI: > 100 µM
[6]
  TGI: > 100 µM
[7]
  TGI: > 100 µM
[8]
  TGI: > 100 µM
[9]
  TGI: > 100 µM
[10]
  TGI: > 100 µM

## COc1ccc(OC)c(C[P+](c2ccccc2)(c2ccccc2)c2ccccc2)c1
[1]
  TGI: > 26.8 µM
[2]
  TGI: > 94.6 µM
[3]
  TGI: > 100 µM
[4]
  TGI: 22.2 µM
[5]
  TGI: 21.7 µM
[6]
  TGI: > 35.3 µM
[7]
  TGI: > 37.3 µM
[8]
  TGI: > 48.8 µM
[9]
  TGI: 8.56 µM
[10]
  TGI: 6.07 µM
